Test results taken from patent US20110009628A1, “Compounds and Compositions for Modulating Lipid Levels and Methods of Preparing Same” (priority 2009, published 2011).
Where a name gives a salt, the structure may show the parent alone.

Tests used:
[1] = tested on: LDLR mRNA expression in HepG2 cells; experiment: LDLR mRNA expression in HepG2 cells, quantitative real-time RT-PCR (Example 7); type: cell-based, human; settings: dose less than or equal to 10 μM, 24 hours
In short: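 LDLR mRNA quantified by TaqMan real-time PCR in triplicate, normalized to GAPDH and expressed relative to untreated cells set at 1 (mean±s.d.).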

[2] = tested on: intracellular triglyceride in HepG2 cells; experiment: Reduction of intracellular triglyceride in HepG2 cells (Example 8); type: cell-based, human; settings: B, compound dose ≦40 μM
Excerpt: Berberine chloride was used for comparison. The amount of TG in untreated control cells was defined as 100% and the amounts of TG in compound-treated cells were divided to that value.

[3] = tested on: PCSK9 mRNA expression in HepG2 cells; experiment: PCSK9 mRNA expression in HepG2 cells, simvastatin versus compound 91 (Example 10); type: cell-based, human; settings: 24 hours, FIG. 4B
Experimental: (§1) In yet another experiment, HepG2 cells were treated with various compounds for 24 hours at the indicated doses. Total RNA was isolated and 2 μg was used to generate cDNA in a reaction containing random primers and M-MLV at 37° C. for 1 hour in a volume of 25 μL. Real-time PCR was performed on the cDNA using MCEP REALPLEX 2 SYSTEM (Eppendorf) and Universal MasterMix (Applied Biosystems). Human LDLR and GAPDH Pre-Developed TaqMan Assay Reagents (Applied Biosystems) were used to assess the levels of mRNA expressions in HepG2. The levels of LDLR mRNA were normalized to that of GAPDH. Each RNA samples was assayed in triplicate. The abundance of LDLR mRNA in untreated cells was defined as 1, and the amounts of LDLR mRNA from compound-treated cells were plotted relative to that value in FIG. 2B. The data shown are mean±s.d.
(§2) Total RNA was harvested for quantitative real-time RT-PCR analysis using method described in Examples 5B. The fold activity was derived by dividing the amount of normalized LDLR or PCSK9 mRNA in compound-treated cells over the amount of LDLR or PCSK9 mRNA in untreated control cells.

[4] = tested on: LDLR mRNA expression in HepG2 cells; experiment: LDLR mRNA expression in HepG2 cells, simvastatin versus compound 91 (Example 10); type: cell-based, human; settings: 24 hours, FIG. 4A
Experimental: as §1, §2

[5] = tested on: LDLR protein expression in HepG2 cells; experiment: Western blot of LDLR protein in HepG2 cells, Compounds 162 and 163; type: cell-based, human; settings: 20 μM, 16 or 24 hours, FIG. 7
Experimental: (§3) FIG. 7 is a Western blot analysis of LDLR and PCSK9 expression in HepG2 cells. HepG2 cells seeded in 12-well culture plates were cultured in 0.5% FBS MEM overnight. Compounds 162 and 163 at 20 μM were added to cells for the indicated times. Untreated and treated cells were harvested at the same indicated time points. Total cell lysates were isolated and 50 μg per sample was analyzed for LDLR and PCSK9 protein abundance by western blotting. The membrane was reprobed with anti-actin antibody to examine the equal loading of cell lysates.
Chicken anti-LDLR was purchased from Abcam. HepG2 cells cultured in 60-mm dishes were incubated overnight in medium containing 0.5% fetal bovine serum prior to the addition of compounds at 20 μM concentration. After 16 or 24 hours of treatment, total cell lysate was isolated and 50 μg of protein was separated on SDS-PAGE and transferred to nitrocellulose membrane for immunoblotting with anti-LDLR.

[6] = tested on: LDLR mRNA expression in HepG2 cells; experiment: LDLR mRNA expression in HepG2 cells, Compounds 162 and 163, real-time RT-PCR (Example 13); type: cell-based, human; settings: FIGS. 6A and 6B
Experimental: In FIG. 6A HepG2 cells were exposed to Compounds 162 and 163 at the indicated concentrations (x-axis) for 24 h and plotted against normalized LDLR mRNA levels (fold of control in absence of compound). In FIG. 6B, HepG2 cells were treated with 20 μM of each compound for the indicted times (x-axis) and plotted against normalized LDLR mRNA levels (fold of control at 24 h).
The time- and dose-dependent effects of the enantiomers of Compound 127 (Compounds 162 and 163) on LDLR mRNA expression were examined using quantitative real-time RT-PCR assays (FIGS. 6A and 6B). HepG2 cells were treated with Compound 162 and Compound 163 at indicated concentrations for various times. Total RNA was isolated and […] was used to generate cDNA in a reaction containing random primers and M-MLV at 37° C. for 1 h in a volume of 25 μL. Real-time PCR was performed on the cDNA using MCEP REALPLEX 2 SYSTEM (Eppendorf) and Universal MasterMix (Applied Biosystems). Human LDLR and GAPDH Pre-Developed TaqMan Assay Reagents (Applied Biosystems) were used to assess the levels of mRNA expressions in HepG2. The levels of LDLR mRNA were normalized to that of GAPDH. Each RNA samples was assayed in triplicate. The fold activity was calculated by dividing mRNA abundance in compound treated cells with that of control.

[7] = tested on: PCSK9 protein expression in HepG2 cells; experiment: Western blot of PCSK9 protein in HepG2 cells, Compounds 162 and 163; type: cell-based, human; settings: 20 μM, time-dependent, FIG. 7
Experimental: as §3
Recent studies have identified the liver secreted serine protease PCSK9 (proprotein convertase subtilisin type 9) as a natural inhibitor of LDLR protein expression that degrades hepatic LDLR protein, thus increasing circulating LDL-C levels.

[8] = in vivo; set-up: species or system Golden Syrian hamsters; settings: hamster, po
Experimental: For testing the efficacy of Compound 141 (phosphate salt of Compound 127) or its enantiomers (Compound 162/Compound 163) the following suspension formulation procedure was developed to make 100 ml of Compound 141 in suspension at 10 mg/ml concentration in 0.1 M tartaric buffer pH. 3 containing 0.5% hydroxypropylcellulose H-type (HPC-H):
Step 1: 1.50 g L-(+)-tartaric acid was dissolved in 100 mL water to prepare a tartaric acid solution. The solution was adjusted to pH 3 with 1.2 mL 5N NaOH solution to provide the tartaric acid buffer (100 mM). Step 2: 0.5 g HPC-H powder was added to 10 mL tartaric acid buffer (100 mM) at 50° C. The slurry was stirred for 30 minutes, and then diluted with 90 mL tartaric acid buffer (100 mM) at room temperature to provide 0.5% HPC-H. Agitation was continued until all particles were dissolved and the solution was completely free of gels. Step 3: 1.20 g Compound 141 (or Compound 162 or Compound 163) and 1.20 g mannitol were mixed and ground through a 120 mesh sieve, then the mixture was ground slightly again. The mixture was dispersed in 100 mL 0.5% HPC-H-L-(+)-Tartaric acid buffer (pH=3), then stirred until the drug dispersed evenly. The final pH was 2.6. All the above procedures were completed at room temperature (˜25° C.). The final concentration of Compound 141 was 10 mg/ml after correction of the salt weight.
The pharmacokinetic profile and bioavailability of Compound 141 (phosphate salt of Compound 127) in male Wistar rats following single intravenous (iv) and oral administration (p.o.) were measured according to the procedures of Example 4 and are summarized in Table 11. The pharmacokinetic profile of Compound 162 in male Golden Syrian masters following oral administration (pox) is summarized in Table 12.

| Structure (SMILES) | Activity on LDLR mRNA expression (Fold of control) [1] | Activity on reduction of cellular TG accumulation (% of control) [2] | PCSK9 mRNA expression [3] | LDLR mRNA expression [4] | LDLR mRNA and protein expression [5] | LDLR mRNA expression [6] | PCSK9 cellular levels [7] | pharmacokinetic properties and bioavailability, in words [8] |
| --- | --- | --- | --- | --- | --- | --- | --- | --- |
| COc1cc2c(cc1OC)C1Cc3ccc(OC)c(OS(=O)(=O)c4ccccc4)c3CN1CC2 (centres unmarked) [Compound 91, 2,3,10-trimethoxy-5,6,7,8,13,13a-hexahydroisoquinolino[2,1-b]isoquinolin-9-yl benzenesulfonate] | 3.77 ± 0.20 Fold of control | 71.17 ± 2.23 % of control | inhibits | dose-dependently increases |  |  |  |  |
| COc1cc2c(cc1OC)C1Cc3ccc(OC)c(OS(=O)(=O)c4cccc(F)c4)c3CN1CC2 (single isomer, unassigned) [Compound 163, 2,3,10-Trimethoxy-5,6,7,8,13,13a-hexahydroisoquinolin[2,1-b]isoquinolin-9-yl 3-fluorobenzenesulfonate phosphate Salt (Enantiomer having negative optical rotation)] |  |  |  |  | significantly enhance | upregulate LDLR mRNA expression | greatly decreased | excellent pharmacokinetic properties and good bioavailability |
